Test results reported in patent US5610154A, “Bicyclic carboxamides” (John Wyeth & Brother, Ltd., priority 1994, dated 1997).

Each compound was assayed against T1, 5-HT1A receptor (Rattus norvegicus, UniProt P19327) (assay: 5-HT1A receptor binding activity in rat hippocampal membrane homogenate (method of B. S. Alexander and M. D. Wood)).
T1 construct: rat hippocampal membrane homogenate; from tissue; host or cells: rat hippocampus, membrane homogenate
T1 sequence (P19327 1-422): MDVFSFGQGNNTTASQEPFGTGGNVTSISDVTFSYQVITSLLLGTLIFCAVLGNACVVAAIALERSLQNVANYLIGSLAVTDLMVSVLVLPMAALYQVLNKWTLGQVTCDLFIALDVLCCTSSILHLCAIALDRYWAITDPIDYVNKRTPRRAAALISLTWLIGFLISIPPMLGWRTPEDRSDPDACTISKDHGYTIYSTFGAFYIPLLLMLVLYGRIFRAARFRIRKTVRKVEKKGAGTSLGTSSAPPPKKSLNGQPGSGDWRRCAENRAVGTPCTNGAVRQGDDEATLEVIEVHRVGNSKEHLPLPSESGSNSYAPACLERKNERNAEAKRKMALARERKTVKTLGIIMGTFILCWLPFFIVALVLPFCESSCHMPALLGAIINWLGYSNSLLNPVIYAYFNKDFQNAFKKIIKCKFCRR
Description: The compounds of the invention are tested for 5-HT1A receptor binding activity in rat hippocampal membrane homogenate by the method of B. S. Alexander and M. D. Wood, J. Pharm. Pharmacol., 1988, 40, 888-891.
Compound COc1ccccc1N1CCN(CCC(C(=O)N2C3CCCC2CC3)c2ccccc2)CC1 (centres unmarked) [Example 1, 1-(8-Aza-bicyclo[3.2.1]oct-8-yl)-4-[4-(2-methoxy-phenyl)-piperazin-1-yl]-2-phenyl-butan-1-one] has an IC50 of 3.3 nM.
Work on COc1ccc(F)cc1N1CCN(CCC(C(=O)N2C3CCCC2CC3)c2ccccc2)CC1 (centres unmarked) [Example 2, 1-(8-Aza-bicyclo[3.2.1]oct-8-yl)-4-[4-(5-fluoro-2-methoxy-phenyl)-piperazin-1-yl]-2-phenyl-butan-1-one] yielded an IC50 of 1.48 nM.
For O=C(C(CCN1CCN(c2cccc3[nH]ccc23)CC1)c1ccccc1)N1C2CCCC1CC2 (centres unmarked) [Example 5, 1-(8-Aza-bicyclo[3.2.1]oct-8-yl)-4-[4-(1H-indol-4-yl)-piperazin-1-yl]-2-phenyl-butan-1-one], the IC50 was 3.73 nM.
Work on O=C(C(CCN1CCN(c2ccccn2)CC1)c1ccccc1)N1C2CCCC1CC2 (centres unmarked) [Example 8, 1-(8-Aza-bicyclo[3.2.1]oct-8-yl)-2-phenyl-4-[4-(pyridin-2-yl)-piperazin-1-yl]-butan-1-one] yielded an IC50 of 3.5 nM.
Compound O=C(C(CCN1CCN(c2ncccc2C(F)(F)F)CC1)c1ccccc1)N1C2CCCC1CC2 (centres unmarked) [Example 10] has an IC50 of 17.9 nM.
In the case of O=C(C(CCN1CCN(c2cccc3[nH]ccc23)CC1)c1ccccc1)N1CC2CCC(CC2)C1 (centres unmarked) [Example 14, 1-(3-Aza-bicyclo[3.2.2]non-3-yl)-4-[4-(1H-indol-4-yl)-piperazin-1-yl]-2-phenylbutan-1-one], the IC50 is reported as 1.96 nM.
COc1ccccc1N1CCN(CCC(C(=O)N2CC3CCC(CC3)C2)c2ccccc2)CC1 (centres unmarked) [Example 15] gave an IC50 of 0.58 nM.
COc1ccccc1N1CCN(CCC(C(=O)N2CC3CC=CCC3C2)c2ccccc2)CC1 (centres unmarked) [Example 16, 1-(1,3,3a,4,7,7a-Hexahydroisoindol-2-yl)-4-[4-(2-methoxyphenyl)piperazin-1-yl]-2-phenylbutan-1-one] was tested, and the IC50 was 4.46 nM.
